Assay results taken from patent US9273054B2, “Substituted pyrimido[1,6-a]pyrimidines as Lp-PLA2 inhibitors” (Glaxo Group Limited, priority 2011, dated 2016).

Experiments:
EAE rats = assay: Rat experimental autoimmune encephalomyelitis (EAE) model, preventive treatment; format: in vivo
Procedure: A further study was carried out to study the impact of Lp-PLA2 inhibitors on modulating M1/M2 imbalance. In this study, rats were induced to develop experimental autoimmune encephalomyelitis (EAE) by immunization with myelin basic protein (MBP) antigen and treated with a known Lp-PLA2 inhibitor: 5-((9-Methoxy-4-oxo-6,7-dihydro-4H-pyrimido[6,1-a]isoquinolin-2-yl)oxy)-2-(3-(trifluoromethyl)phenoxy)benzonitrile (See PCT application no. PCT/CN2011/001597). In this preventive treatment model, the compound was administered at day 0 (day of immunization) and continued to administer until day 22. The study lasted for 25 days. Rats were subsequently monitored for symptoms of EAE. Rats were immunized with MBP to develop EAE and symptoms were monitored daily. Plasma Lp-PLA2 activity, O×LDL, and LysoPC concentration were determined at different time points through the course of EAE.

[1] = test system: proinflammatory (M1) and anti-inflammatory (M2) markers in macrophages; assay: Ex vivo analysis of M1 and M2 markers in macrophages of EAE rats by realtime PCR; set-up: species or system rat; details: splenic macrophages day 13 post MBP-immunization and CNS infiltrating macrophages
Procedure: Ex vivo analysis of proinflammatory (M1) and anti-inflammatory (M2) markers in control and compound treated EAE rats. Splenic macrophages were harvested at day 13 post MBP-immunization and assayed for expression of a variety of markers by realtime PCR. CNS infiltrating cells were harvested and macrophages were analyzed for expression of M1 and M2 markers by realtime PCR.

## COc1ccc2c(c1)CCn1c-2cc(Oc2ccc(Oc3cccc(C(F)(F)F)c3)c(C#N)c2)nc1=O [5-((9-Methoxy-4-oxo-6,7-dihydro-4H-pyrimido[6,1-a]isoquinolin-2-yl)oxy)-2-(3-(trifluoromethyl)phenoxy)benzonitrile]
EAE rats; rat EAE plasma
  plasma Lp-PLA2 activity: decreased Lp-PLA2 activity
  plasma LysoPC levels: decreased
EAE rats; rat EAE, MBP immunization, administered day 0 until day 22
  clinical disease (EAE): reduction in clinical disease
[1]
  M1 markers expression: decrease in M1 markers
  M2 markers expression: increase in M2 markers
